Measured values published in ChEMBL document CHEMBL1201862, “PubChem BioAssay data set” (2004).
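Exposure lasted 48 hours, with cells grown in 96-well plates and compounds tested at five concentrations. At the GI50, growth is halved.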 Calls of active or inactive are those of the source. Rule as the data show it: active = GI50 up to about 1.1 µM and inactive = higher.

Experiments:
Experiment in all cases: growth of human tumour cells (NCI), 48 h
XF498 = system: XF498
M19-MEL = system: M19-MEL
KM-20L2 = system: KM-20L2
DMS-273 = system: DMS-273
DLD-1 = system: DLD-1
HOP-18 = system: HOP-18
LXFL 529 = system: LXFL 529
RXF 631 = system: RXF 631
SNB-78 = system: SNB-78

SMILES | GI50 (XF498) | GI50 (M19-MEL) | GI50 (KM-20L2) | GI50 (DMS-273) | GI50 (DLD-1) | GI50 (HOP-18) | GI50 (LXFL 529) | GI50 (RXF 631) | GI50 (SNB-78)
O=C1OC2C=CC1C1(CCOC1=O)C2 (stereo not given) | > 100 µM (inactive) | > 100 µM (inactive) | > 100 µM (inactive) | > 100 µM (inactive) | > 100 µM (inactive) | > 100 µM (inactive) | > 100 µM (inactive) |  | 
COc1ccc2oc(-c3ccc(OC)c(OC)c3OC)cc(=O)c2c1 | 39.7 µM (inactive) | 57 µM (inactive) | 24 µM (inactive) |  | 49.7 µM (inactive) |  | 39.4 µM (inactive) |  | 
CCOC(=O)C1C(=O)c2cccc(OC)c2C2COC(=O)N12 (stereo not given) | > 100 µM (inactive) | > 100 µM (inactive) | > 100 µM (inactive) | > 100 µM (inactive) | > 100 µM (inactive) | > 100 µM (inactive) | > 100 µM (inactive) | > 100 µM (inactive) | 
COc1ccc(NC(=O)CC(=O)n2nc(-c3ccccc3)c(/N=N/c3ccc(C)cc3)c2-c2ccccc2)cc1 | 12.4 µM (inactive) | 28.9 µM (inactive) | > 78.2 µM (inactive) | 33.3 µM (inactive) | > 79.3 µM (inactive) | 24.3 µM (inactive) | 40.8 µM (inactive) | 54.5 µM (inactive) | 20.8 µM (inactive)
CO[C@@H]1C=C[C@@]23c4cc5c(cc4C(=O)O[C@H]2CN(C)[C@H]3C1)OCO5 | > 100 µM (inactive) | > 100 µM (inactive) | > 100 µM (inactive) | > 100 µM (inactive) | > 100 µM (inactive) | > 100 µM (inactive) | > 100 µM (inactive) |  | > 100 µM (inactive)
COC(=O)/C(=N\N)C(C(=O)C(=O)Nc1nnc(S)[nH]1)c1nc2ccc([N+](=O)[O-])cc2nc1O (stereo not given) |  | > 100 µM (inactive) | > 100 µM (inactive) | > 100 µM (inactive) | > 100 µM (inactive) | > 100 µM (inactive) | > 100 µM (inactive) | > 100 µM (inactive) | > 100 µM (inactive)
COc1ccccc1/C=C(\NC(=O)c1ccccc1)c1nc2ccc(Cl)cc2[nH]1 | 34.4 µM (inactive) | 32.9 µM (inactive) | 48.8 µM (inactive) | 37.1 µM (inactive) | 23.8 µM (inactive) | 26.2 µM (inactive) | 21.1 µM (inactive) |  | 38.9 µM (inactive)
Nc1nc[n+](Cc2ccccc2)c2ncn(Cc3ccccc3)c12 |  | > 100 µM (inactive) | 55.2 µM (inactive) | > 100 µM (inactive) | 80.2 µM (inactive) | > 100 µM (inactive) | > 100 µM (inactive) |  | 75 µM (inactive)
CC1/C=C/[C@@]2(C)CCC(C(C)(C)O)C2C(O)C[C@](C)(O)/C=C/C1 (stereo not given in full) | > 100 µM (inactive) |  | > 100 µM (inactive) | > 100 µM (inactive) | > 100 µM (inactive) | > 100 µM (inactive) | > 100 µM (inactive) |  | > 100 µM (inactive)
C[N+](C)(C)CC(=O)N/N=C(/Cc1nc2ccc(Cl)cc2nc1O)C1=NS(=O)(=O)c2cc(S(N)(=O)=O)c(Cl)cc2N1 |  | > 100 µM (inactive) | > 100 µM (inactive) |  | > 100 µM (inactive) |  |  |  | 
COc1ccccc1OCC(COC(=O)Nc1ccc(C)cc1)OC(=O)Nc1ccc(C)cc1 (stereo not given) |  |  | 23.1 µM (inactive) | 16.7 µM (inactive) | 16 µM (inactive) | 18.4 µM (inactive) | 27.1 µM (inactive) | 19.4 µM (inactive) | 26.7 µM (inactive)
O=C(N/N=C(/c1nc2ccc([N+](=O)[O-])cc2[nH]c1=O)C(O)c1ccc([N+](=O)[O-])cc1)c1ccncc1 (stereo not given) | > 100 µM (inactive) | > 100 µM (inactive) |  |  | > 100 µM (inactive) | > 100 µM (inactive) | 53.1 µM (inactive) |  | > 100 µM (inactive)
O=C1N=C2Sc3ccc4ccccc4c3N2C1=O | 19.2 µM (inactive) | 36.1 µM (inactive) | 25.4 µM (inactive) | 22.8 µM (inactive) | 31.1 µM (inactive) | 15 µM (inactive) | 18.7 µM (inactive) | 20.8 µM (inactive) | 26.4 µM (inactive)
COc1cc2c(c(OC)c1OC)-c1ccc(SC)c(=O)cc1[C@@H](NCc1cccc([N+](=O)[O-])c1)CC2 | < 0.01 µM (active) | < 0.01 µM (active) | < 0.01 µM (active) | < 0.01 µM (active) | < 0.01 µM (active) | > 100 µM (inactive) | < 0.01 µM (active) | < 0.01 µM (active) | < 0.01 µM (active)
CC1(C(=O)O)CCC[C@@]2(C)C1CC[C@@]1(C)c3cocc3CCC21 (stereo not given in full) | > 100 µM (inactive) | > 100 µM (inactive) | > 100 µM (inactive) | > 100 µM (inactive) | > 100 µM (inactive) | > 100 µM (inactive) | > 100 µM (inactive) | > 100 µM (inactive) | > 100 µM (inactive)
N=C1SCCS1 | > 100 µM (inactive) | > 100 µM (inactive) | > 100 µM (inactive) |  | > 100 µM (inactive) |  | > 100 µM (inactive) |  | > 100 µM (inactive)
CCOc1ccccc1NC(=O)C(=O)C(C(=O)c1ccc2ccccc2c1)C1OC(=O)c2ccccc21 (stereo not given) |  |  | 28.3 µM (inactive) | 12.3 µM (inactive) | 15.2 µM (inactive) | 16.6 µM (inactive) | 5.21 µM (inactive) | 6.18 µM (inactive) | 11.6 µM (inactive)
O=c1[nH]nc(-c2ccccc2)c(-c2ccccc2)c1-n1nc(-c2ccccc2)c2ccccc2c1=O |  | > 100 µM (inactive) |  | 89.5 µM (inactive) | 76.7 µM (inactive) | > 100 µM (inactive) | 46.8 µM (inactive) |  | > 100 µM (inactive)
[O-][n+]1c2cc(CBr)c(CBr)cc2[n+]([O-])c2c(O)cccc21 | 2.35 µM (inactive) | 1.73 µM (inactive) | 3.07 µM (inactive) | 1.68 µM (inactive) | 1.41 µM (inactive) | 2.39 µM (inactive) | 1.56 µM (inactive) | 3.15 µM (inactive) | 1.94 µM (inactive)
O=C1/C(=C\c2ccccc2)c2ccccc2N1/N=C\c1ccccc1 | > 100 µM (inactive) | 97.7 µM (inactive) | > 100 µM (inactive) | > 100 µM (inactive) | 59 µM (inactive) | > 100 µM (inactive) |  |  | > 100 µM (inactive)
C=C(Br)C(C)(Br)CCC(Br)C(C)(C)Br (stereo not given) |  | 17 µM (inactive) |  | 19.2 µM (inactive) | 37 µM (inactive) | > 100 µM (inactive) | 20.5 µM (inactive) |  | 26.2 µM (inactive)
COC1C(O)C(C)OC(OC2C(Oc3cccc4c(O)c5c(=O)oc6ccc(C)c7c(=O)oc(c34)c5c67)OC(C)C(O)C2O)C1O (stereo not given) | 0.824 µM (active) | 1.04 µM (active) | 2.52 µM (inactive) | 2.1 µM (inactive) | 1.26 µM (inactive) | 2.45 µM (inactive) |  |  | 2 µM (inactive)
CCCCCCCCCCCCCC(=O)OCC1OC(OC)C(NC(=O)N(CCCl)N=O)C(O)C1O (stereo not given) | 15.9 µM (inactive) |  | 21 µM (inactive) | 12.9 µM (inactive) | 20.8 µM (inactive) | > 100 µM (inactive) | 16.3 µM (inactive) | 20.9 µM (inactive) | 25.5 µM (inactive)
O=S(=O)(c1ccccc1)C1CN(Cc2ccccc2)CCN(Cc2ccccc2)C1 | 18.8 µM (inactive) | 14.4 µM (inactive) | 35.2 µM (inactive) | 12.7 µM (inactive) | 12.1 µM (inactive) |  | 11.3 µM (inactive) |  | 
CN(C)CCN1C(=O)c2cccc3cc([N+](=O)[O-])cc(c23)C1=O [MITONAFIDE] | 0.303 µM (active) | 0.377 µM (active) | 0.405 µM (active) | 0.0514 µM (active) | 0.873 µM (active) | 0.652 µM (active) | 0.682 µM (active) | 0.171 µM (active) | 2 µM (inactive)
c1ccc(SC(CCCCC(Sc2ccccc2)Sc2ccccc2)Sc2ccccc2)cc1 | > 100 µM (inactive) | > 100 µM (inactive) | > 100 µM (inactive) | > 100 µM (inactive) | > 100 µM (inactive) |  | > 100 µM (inactive) | > 100 µM (inactive) | > 100 µM (inactive)
O=C1NC(=S)NC(=O)C1=CC1CC1 | > 100 µM (inactive) | > 100 µM (inactive) | > 100 µM (inactive) | > 100 µM (inactive) | > 100 µM (inactive) | > 100 µM (inactive) | > 100 µM (inactive) |  | > 100 µM (inactive)
O=[N+]([O-])c1ccc(C2CC(c3ccccc3Cl)=Nc3ccccc3S2)cc1 (stereo not given) | 7.13 µM (inactive) | 10.5 µM (inactive) | 4.74 µM (inactive) | 4.71 µM (inactive) | 2.3 µM (inactive) | 3.3 µM (inactive) | 2.84 µM (inactive) | 5.74 µM (inactive) | 16.1 µM (inactive)
CC1=CCN(c2ccccn2)OC1c1ccccc1 (stereo not given) | > 100 µM (inactive) | > 100 µM (inactive) | > 100 µM (inactive) | > 100 µM (inactive) | > 100 µM (inactive) | > 100 µM (inactive) | > 100 µM (inactive) | > 100 µM (inactive) | > 100 µM (inactive)
